The values below come from US20190203212A1, “INDUCIBLE DNA BINDING PROTEINS AND GENOME PERTURBATION TOOLS AND APPLICATIONS THEREOF” (Massachusetts Institute of Technology, priority 2013, published 2019).

This assay relates to Grm2. The assay can be described thus: AAV-delivered TALE / LITE modulation of Grm2 mRNA in primary cortical neurons, qRT-PCR. It is filed as cell-based, mouse. Particulars: neurons expressing only one LITE component. As to the method: FIG. 18 depicts metabotropic glutamate receptor 2 (mGlur2) LITE activity in mouse cortical neuron culture. A mGluR2 targeting LITE was constructed via the plasmids pAAV-human Synapsin I promoter (hSyn)-HA-TALE(mGluR2)-CIB1 and pAAV-hSyn-CRY2PHR-VP64-2A-GFP. These fusion constructs were then packaged into adeno associated viral vectors (AAV). Additionally, AAV carrying hSyn-TALE-VP64-2A-GFP and GFP only were produced. Embryonic mouse (E16) cortical cultures were plated on Poly-L-lysine coated 24 well plates. After 5 days in vitro neural cultures were co-transduced with a mixture of TALE(mGluR2)-CIB1 and CRY2PHR-VP64 AAV stocks. Control samples were transduced with either TALE(mGluR2)-VP64 AAV or GFP AAV. 6 days after AAV transduction, experimental samples were stimulated using either of two light pulsing paradigms: 0.5 s per min and 0.25 sec per 30 sec. Neurons were stimulated for 24 h and harvested for qPCR analysis. All mGluR2 expression levels were normalized to the respective stimulated GFP control. […]
Light stimulation was started 6 days after AAV transduction (DIV 11) with an intensity of 5 mW/cm^2, duty cycle of 0.8% (250 ms pulses at 0.033 Hz or 500 ms pulses at 0.016 Hz), 466 nm blue light for 24 h unless indicated otherwise in figure legends. […] Relative mRNA levels were measured by quantitative real-time PCR (qRT-PCR) using TaqMan probes as described above for Neuro 2a cells. […]

Consider “CRY2PHR-VP64: LITE effector component alone”, for which the “Grm2 mRNA versus GFP controls, single LITE component” value is reported as “did not significantly affect transcription”.
